# Data published in paper PMC9101642 (Molecules, 2022).
# Read-outs that look alike come from different tables or passages of the source. Marks after values point to notes of the source that are not given here.
# Experiments:
# [1] = system: progesterone receptor (PR); assay: ERα functional antagonism cell assay (PR as biomarker) in MCF-7; type: cell-based; details: Homo sapiens, MCF7; progesterone receptor as biomarker for ERα antagonism in MCF-7
# [2] = system: MNU-induced breast cancer tissue; assay: Histopathology of breast sections; type: in vivo, Wistar rats
# Text: The impact of selected leads on BC tissue was registered after their administration to experimental animals with MNU-induced BC (Figure 9 and Supplementary Material Figures S211–S218). […] In contrast to this, the administered leads were harmless in both concentrations, neutralizing the MNU-induced changes, judging by the lobuloalveolar units and cuboidal epithelial cells found (Figure 9C,D, and Supplementary Material Figures S214–S218). […]
# Histopathological Studies
# histopathological changes. […]
# [3] = system: MNU-induced breast cancer; assay: In vivo anticancer screening, MNU-induced mammary tumorigenesis; set-up: species or system female Wistar rats
# [4] = rat, in vivo
# [5] = Liver oxidative stress markers after treatment of MNU-induced rats; type: in vivo, Wistar rats; details: liver; for CAT: catalase activity; for GSH: reduced glutathione; for SOD (U/mg): superoxide dismutase activity
# Procedure: (§1) Rats were housed at 3 per cage and
# (§2) The breast cancer was induced after the MNU (Sigma Aldrich CAS No. 684-93-5) administration. An aqueous solution at a concentration of 10 mg/ml was made by wetting the NMU powder with 3% acetic acid and then dissolving it in 0.9% NaCl solution; a fresh solution was prepared for each injection. Rats were given intraperitoneal (i.p.) 50 mg/kg of MNU on the 50th day of age. Animals were divided into different groups with six animals in each group. Group I (intact control) received 0.9% NaCl solution.
# (§3) Groups II-IV and V-VII were introduced with MNU. Two weeks after MNU treatment, animals were treated orally with synthesized compounds and control substances (5 and 50 mg/kg, for groups II-IV and V-VII, respectively) by gavage once per day for six weeks. Animals in the intact control group and untreated MNU group were given vehicle (Tween 80) according to the experimental protocol. […]
# (§4) Upon finishing the treatment with synthesized compounds, animals were sacrificed, and plasma, serum, and liver samples were collected. […]
# Determination of Antioxidant Markers in Liver Homogenate
# Rat liver samples were homogenized in phosphate buffer (5 mM, pH = 7.4) to give a 10% (w/v) liver homogenate and then centrifuged at 4000 rpm for 15 min at 4°C. The supernatant of liver homogenate was used for the estimation of reduced glutathione (GSH) and catalase (CAT) levels by the colorimetric method. The contents of malondialdehyde (MDA) in the supernatant of the liver homogenates were determined using 1,1,3,3-tetraethoxypropane as standard. Total protein concentrations were determined according to the method of Lowry using bovine serum albumin as […]
# [6] = Pharmacokinetics study, oral bioavailability; details: rat
# [7] = Lipophilicity by shake-flask method; details: pH 7.4
# [8] = system: MDA-MB-231 cell lines; assay: MTT antiproliferative assay; type: cell-based, human; details: Homo sapiens, MDA-MB-231; growth inhibition, 48 h; read-out: MDA-MB-231 (IC50 nM)
# [9] = system: Ishikawa endometrial adenocarcinoma cells; assay: Antiproliferative assay; type: cell-based; details: Homo sapiens, growth inhibition
# Text: As SERMs profile is often associated with the stimulation of endometrial cell proliferation and an increase in the incidence of endometrial cancer (EC), the herein compounds were therefore evaluated against Ishikawa endometrial adenocarcinoma cells (Table 8, Supplementary Material Figures […]). […] However, future experimental elaboration, currently beyond the authors' experimental facilities, is required to confirm compounds' promising profiles in terms of no EC induction.
# [10] = Plasma protein binding determination; type: in vitro ADME, rat; details: rat plasma, 37 °C, read-out: Rat PPB (%free)
# Procedure: as §1, §2, §3, §4
# Rat plasma containing either 5 or 50 mg/kg bwt of the tested compounds was incubated at 37°C upper reservoir of the washed Centri-free YM-30 ultrafiltration units (Millipore, Bedford, MA) and then centrifuged for 20 min at 2,000 g. Aliquots of the ultrafiltrates and unfiltered incubation mixtures were analyzed for the total protein concentration by the bicinchoninic acid assay for protein concentration (BCA assay; Pierce, Rockford, IL).
# [11] = MTT antiproliferative assay (neutral control); details: human
# [12] = Serum biochemical markers after treatment of MNU-induced rats; type: in vivo, Wistar rats; set-up: TBC: unit not given here; details: for ALP (A/L) / ALT (A/L) / AST (U/L) / γ-GT (U/L): serum; for TBC: total bilirubin content
# Procedure: as §1, §2, §3
# Upon finishing the treatment with synthesized compounds, animals were sacrificed, and plasma, serum, and liver samples were collected.
# Measurement of Serum Biochemical Markers
# The activities of AST and ALT on 340 nm, and ALP on 405 nm, were determined by UV-Vis kinetic methods according to recommendations of the Expert Panel of the IFCC (International Federation of Clinical Chemistry). The colorimetric methods were used for the determination of total bilirubin (Jendrassik-Grof 550 nm method). All kinetic and colorimetric measurements were recorded using a Perkin-Elmer Lambda 25 UV/Vis spectrophotometer. […]
# [13] = system: MCF-7 cells; assay: Cell cycle distribution by flow cytometry; type: cell-based, human; details: 24 h
# [14] = system: MCF-7 cell lines; assay: MTT antiproliferative assay; type: cell-based, human; details: for IC50: Homo sapiens, MCF7, growth inhibition, 48 h, read-out: MCF-7 (IC50 nM)
# [15] = molecular target: ERβ (Homo sapiens, UniProt Q92731); assay: Fluorescence polarization competition assay: antagonistic potency and relative binding affinity; details: for logRBA ERβ: log of % relative binding affinity, estradiol = 100%
# [16] = molecular target: T1, ERα (Homo sapiens, UniProt P03372); assay: ERα down-regulation immunofluorescence assay in MCF-7; type: cell-based
# T1 sequence (P03372 1-595): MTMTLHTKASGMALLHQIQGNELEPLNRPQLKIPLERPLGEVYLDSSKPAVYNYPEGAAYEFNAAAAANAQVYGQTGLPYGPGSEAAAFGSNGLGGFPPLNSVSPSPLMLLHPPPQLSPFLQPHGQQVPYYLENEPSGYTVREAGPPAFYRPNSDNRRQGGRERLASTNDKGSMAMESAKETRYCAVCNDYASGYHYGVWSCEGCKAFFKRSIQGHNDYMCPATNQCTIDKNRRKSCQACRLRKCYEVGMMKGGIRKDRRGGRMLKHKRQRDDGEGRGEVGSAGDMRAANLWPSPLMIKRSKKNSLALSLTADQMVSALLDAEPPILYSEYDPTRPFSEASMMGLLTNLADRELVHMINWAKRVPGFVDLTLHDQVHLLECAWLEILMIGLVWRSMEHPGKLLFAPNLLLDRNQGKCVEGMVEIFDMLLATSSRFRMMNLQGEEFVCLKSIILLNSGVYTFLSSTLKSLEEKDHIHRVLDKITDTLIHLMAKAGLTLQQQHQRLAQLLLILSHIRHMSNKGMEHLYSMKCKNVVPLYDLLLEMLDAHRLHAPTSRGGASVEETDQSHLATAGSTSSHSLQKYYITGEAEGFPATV
# [17] = molecular target: T1, ERα; assay: Fluorescence polarization competition assay: antagonistic potency and relative binding affinity
# [18] = dose 50 mg/kg (compounds per os after MNU; MNU alone i.p.)
# Sequence of ERβ (Q92731 whole entry): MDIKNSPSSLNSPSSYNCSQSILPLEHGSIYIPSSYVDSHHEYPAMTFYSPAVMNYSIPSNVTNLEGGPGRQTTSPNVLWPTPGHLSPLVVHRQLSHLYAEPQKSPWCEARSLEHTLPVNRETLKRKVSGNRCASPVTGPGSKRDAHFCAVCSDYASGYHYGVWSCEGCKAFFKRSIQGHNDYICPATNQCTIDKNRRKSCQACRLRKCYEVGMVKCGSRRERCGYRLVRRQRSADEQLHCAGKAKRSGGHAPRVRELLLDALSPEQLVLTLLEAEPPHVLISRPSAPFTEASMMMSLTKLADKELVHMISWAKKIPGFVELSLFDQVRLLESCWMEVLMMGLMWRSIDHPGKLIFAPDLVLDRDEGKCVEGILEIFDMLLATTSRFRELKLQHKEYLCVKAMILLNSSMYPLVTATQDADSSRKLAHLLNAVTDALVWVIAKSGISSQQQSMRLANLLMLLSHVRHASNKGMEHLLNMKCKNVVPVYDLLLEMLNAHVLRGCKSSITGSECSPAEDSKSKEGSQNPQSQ
smiles,measurement,setting,value
"CC(=O)c1cc(C(=O)O[C@@H]2/C=C/C(=O)O[C@@H](O)CCC/C=C/[C@@H]3C[C@H](O)C[C@H]32)ccc1OCCS(=O)(=O)O [Compound 3DPQ-4, 2-(2-acetyl-4-((((1R,2E,6R,10E,11aS,13S,14aR)-6,13-dihydroxy-4-oxo-4,6,7,8,9,11a,12,13,14,14a-decahydro-1H-cyclopenta[f][1]oxacyclotridecin-1-yl)oxy)carbonyl)phenoxy)ethanesulfonic acid]",IC50,[1],> 100 nM
same,breast section histopathology,[2]; 5 mg/kg of bwt,lobuloalveolar unit (LaU) and cuboidal epithelial cells (CE)
same,breast section histopathology,[2]; 50 mg/kg of bwt,lobuloalveolar unit (LaU) and cuboidal epithelial cells (CE)
same,Tumor Burden (week),[3]; dose 5 mg/kg per os after MNU,"2.39 ± 0.56 *^,†,‡,‖ week"
same,Tumor Latency (week),[3]; dose 5 mg/kg per os after MNU,"10 *^,† week"
same,Tumor Volume (mm^3),[3]; dose 5 mg/kg per os after MNU,"0.98 ± 0.31 *^,†,‡,‖ mm^3"
same,Tumor Burden (week),[3]; [18],"1.33 ± 0.15 *^,†,§,┴ week"
same,Tumor Latency (week),[3]; [18],"14 *^,† week"
same,Tumor Volume (mm^3),[3]; [18],"0.41 ± 0.23 *^,†,§,┴ mm^3"
same,"WL after MFD (day 1, mg)",[4],320.73 ± 0.36 mg
same,CAT,[5]; dose 5 mg/kg,16.34±0.73
same,CAT,[5]; dose 50 mg/kg,16.43±0.66
same,TBARS,[5]; dose 5 mg/kg,0.65 ± 0.21 nmol/mg
same,TBARS,[5]; dose 50 mg/kg,0.65 ± 0.34 nmol/mg
same,GSH,[5]; dose 5 mg/kg,9.87 mg/g
same,GSH,[5]; dose 50 mg/kg,10.36 mg/g
same,SOD (U/mg),[5]; dose 5 mg/kg,8.73±0.38 U/mg
same,SOD (U/mg),[5]; dose 50 mg/kg,10.57±0.73 U/mg
same,TP,"[5]; total protein content, dose 50 mg/kg",48.54 g/L
same,BIO,[6]; oral 5 mg/kg,90
same,BIO,[6]; oral 50 mg/kg,93
same,logD at 30 min,[7],1.88
same,IC50,[8],67.31 ± 0.34 nM
same,IC50,[9],0.92 ± 0.43 nM
same,fraction unbound at 5 mg/kg bwt,[10]; 5 mg/kg,0.0123
same,fraction unbound at 50 mg/kg bwt,[10]; 50 mg/kg,0.0151
same,IC50 at 48 h,[11],> 100 nM
same,ALP (A/L),[12]; dose 5 mg/kg,99.41±0.15 A/L
same,ALT (A/L),[12]; dose 5 mg/kg,55.87±0.62 A/L
same,AST (U/L),[12]; dose 5 mg/kg,57.53±0.43 U/L
same,γ-GT (U/L),[12]; dose 5 mg/kg,11.54±0.53 U/L
same,ALP (A/L),[12]; dose 50 mg/kg,104.52±0.31 A/L
same,ALT (A/L),[12]; dose 50 mg/kg,59.74±0.1 A/L
same,AST (U/L),[12]; dose 50 mg/kg,59.46±0.63 U/L
same,γ-GT (U/L),[12]; dose 50 mg/kg,13.46±0.55 U/L
same,TBC,[12]; dose 5 mg/kg,19.31
same,TBC,[12]; dose 50 mg/kg,22.74
same,Cell Cycle (%) G0/G1,[13]; 0.1 nM,"77.78 ± 3.54 *^,†,‡,§ %"
same,Cell Cycle (%) G2/M,[13]; 0.1 nM,"15.02 ± 4.23 *^,†,‡,§ %"
same,Cell Cycle (%) S,[13]; 0.1 nM,"7.20 ± 2.88 *^,†,‡,§ %"
same,Cell Cycle (%) G0/G1,[13]; 1 nM,"80.24 ± 2.53 *^,†,‡,§ %"
same,Cell Cycle (%) G2/M,[13]; 1 nM,"11.86 ± 3.43 *^,†,‡,§ %"
same,Cell Cycle (%) S,[13]; 1 nM,"7.91 ± 0.1.54 *^,†,‡,§ %"
same,IC50,[14],0.64 ± 0.15 nM
same,Ki,"[15]; calculated antagonistic (inhibitory) constant, read-out: Ka ERβ",46.3 nM
same,IC50,"[15]; concentration that antagonizes 50% of ERβ signaling activity, read-out: ERβ (IC50 nM)",82.45 ± 0.54 nM
same,logRBA ERβ,[15],"0.03 ^†,‡,§"
"CC(=O)c1cc(C(=O)O[C@@H]2/C=C/C(=O)O[C@@H](O)CCC/C=C/[C@@H]3C[C@H](O)C[C@H]32)ccc1OCCN1CCCC1 [Compound 3DPQ-11, (1R,2E,6R,10E,11aS,13S,14aR)-6,13-dihydroxy-4-oxo-4,6,7,8,9,11a,12,13,14,14a-decahydro-1H-cyclopenta[f][1]oxacyclotridecin-1-yl 3-acetyl-4-(2-(pyrrolidin-1-yl)ethoxy)benzoate]",IC50,[1],> 100 nM
same,IC50,[16],> 100 nM
same,IC50,[8],67.12 ± 0.54 nM
same,IC50,[17],0.7 ± 0.33 nM
same,Ki,[17],0.16 nM
same,logRBA ERα,"[17]; log of % relative binding affinity, estradiol = 100%",2.10 ^‡
same,"ERα potency, fold higher than Ral",[17]; ratio of IC50 values,1.06 fold
same,IC50,[9],1.37 ± 0.47 nM
same,IC50 at 48 h,[11],> 100 nM
same,Cell Cycle (%) G0/G1,[13]; 0.1 nM,"72.53 ± 0.47 *^,†,‡,§ %"
same,Cell Cycle (%) G2/M,[13]; 0.1 nM,"14.16 ± 2.13 *^,†,‡,§ %"
same,Cell Cycle (%) S,[13]; 0.1 nM,"13.31 ± 1.66 *^,†,‡,§ %"
same,Cell Cycle (%) G0/G1,[13]; 1 nM,"74.99 ± 2.54 *^,†,‡,§ %"
same,Cell Cycle (%) G2/M,[13]; 1 nM,"11.00 ± 3.43 *^,†,‡,§ %"
same,Cell Cycle (%) S,[13]; 1 nM,"14.02 ± 1.43 *^,†,‡,§ %"
same,IC50,[14],0.81 ± 0.22 nM
same,"MCF-7 antiproliferative potency, fold higher than Ral",[14]; ratio of IC50 values,1.10 fold
same,SI,[14]; selectivity index [IC50(MDA-MB-231)]/[IC50(MCF-7)],"82.86 ^‡,§"
same,IC50,[15],76.52 ± 0.48 nM
same,Ki,[15],43 nM
same,logRBA ERβ,[15],"0.07 ^†,‡,§"
